Data taken from patent US7183099B2, “Inhibitors of autoinducer transporters” (Princeton University, priority 2001, dated 2007).

Tests used:
[1] = tested on: V. harveyi reporter strain BB170 (Sensor 1−, Sensor 2+); format: cell-based, Vibrio harveyi; conditions: candidates for the signal tested
Description: Cell-free culture fluids from E. coli, S. typhimurium and V. harveyi strains were tested for the presence of signaling substances that could induce luminescence in the V. harveyi reporter strain BB170 or BB886. […] Positive control wells contained 10 μl of cell-free culture fluid from strain V. harveyi BB152 (Autoinducer-1^−, Autoinducer-2^+) or V. harveyi BB120 (Autoinducer-1^+, Autoinducer-2^+). Negative control wells contained 10 μl of sterile growth medium. The microtiter dishes were shaken in a rotary shaker at 175 rpm at 30° C.
The cell density was measured by diluting the same aliquots of cells used for measuring luminescence, spreading the dilutions onto solid LM medium, incubating the plates overnight at 30° C., and counting the resulting colonies the following day. […] Cell-free culture supernatants from V. harveyi or S. typhimurium strains were added to a final concentration of 10% (v/v) at the time of the first measurement. In control experiments, 10% (v/v) of AB medium, LB medium or LB medium containing 0.5% glucose was added instead of cell-free culture fluids.

[2] = tested on: V. harveyi reporter strain BB886 (Sensor 1+, Sensor 2−); assay: V. harveyi BB886 luminescence stimulation bioassay; format: cell-based, Vibrio harveyi; conditions: non self-stimulating sensor-1+, sensor-2− mutant (BB886)
Description: Assay for production of signaling compounds. Cell-free culture fluids from E. coli, S. typhimurium and V. harveyi strains were tested for the presence of signaling substances that could induce luminescence in the V. harveyi reporter strain BB170 or BB886. In the assays, 10 μl of cell-free culture fluids from E. coli ABI157, E. coli DH5, and S. typhimurium LT2 strains grown and harvested as described above were added to 96-well microtiter dishes. The V. harveyi reporter strain BB170 or BB886 was grown for 16 h at 30° C. with aeration in AB medium, diluted 1:5000 into fresh AB medium, and 90 µl of the diluted cells were added to the wells containing the E. coli and S. typhimurium cell-free culture fluids. Positive control wells contained 10 μl of cell-free culture fluid from strain V. harveyi BB152 (Autoinducer-1^−, Autoinducer-2^+) or V. harveyi BB120 (Autoinducer-1^+, Autoinducer-2^+). Negative control wells contained 10 μl of sterile growth medium. […] Every hour, light production was measured using a Wallac Model 1450 Microbeta Plus liquid scintillation counter in the chemiluminescence mode. The V. harveyi cell density was measured by diluting the same aliquots of cells used for measuring luminescence, spreading the dilutions onto solid LM medium (Bassler et al., 1993, supra), incubating the plates overnight at 30° C., and counting the resulting colonies the following day. […]

Compound	activity (induction of luminescence expression in V. harveyi) [1]	lowest concentration to which the assay was sensitive [2] [nM]
O=C(O)CCC(=O)C(=O)O [-ketoglutarate, reference compound]	None of these compounds has activity	–
CC(=O)O [acetate, reference compound]	None of these compounds has activity	–
N[C@H]1CCOC1=O [homoserine lactone, reference compound]	None of these compounds has activity	–
C[C@@H](O)CC(=O)N[C@H]1CCOC1=O [AI-1, N-(3-hydroxybutanoyl)-L-homoserine lactone, reference compound]	–	100
